Numbers after ± are expanded uncertainties.
Columns and labels:
[1] = 101.33 kPa, Liquid
[2] = xn = mol fraction of the nth substance listed; details: 101 kPa, Liquid

CC(O)CCO (stereo not given) [1,3-butanediol]
[1]
Details | speed of sound [m/s] | viscosity [mPa·s]
293.15 K | 1539.6 ± 3.3 | 130.32 ± 11
298.15 K | 1523.4 ± 3.2 | 97.26 ± 5.9
303.15 K | 1506.3 ± 3.2 | 69.84 ± 2.3
308.15 K | 1492.5 ± 3.2 | 52.54 ± 0.69
313.15 K | 1480.8 ± 3.2 | 39.42 ± 0.95
318.15 K | 1470.3 ± 3.2 | 30.51 ± 0.75

CC(O)CCO (stereo not given) [1,3-butanediol] + NC=O
[2]
Details | speed of sound [m/s] | viscosity [mPa·s]
293.15 K, x2 = 0.1061 | 1539 ± 3.3 | 99.92 ± 4.8
293.15 K, x2 = 0.2004 | 1536.3 ± 3.2 | 78.22 ± 2.4
293.15 K, x2 = 0.3068 | 1537.2 ± 3.2 | 59.74 ± 0.77
293.15 K, x2 = 0.4026 | 1538.5 ± 3.2 | 46.12 ± 0.76
293.15 K, x2 = 0.5033 | 1543.7 ± 3.2 | 34.62 ± 0.58
293.15 K, x2 = 0.6046 | 1550.4 ± 3.2 | 25.02 ± 0.43
293.15 K, x2 = 0.7013 | 1561.2 ± 3.2 | 17.54 ± 0.31
293.15 K, x2 = 0.8073 | 1577.3 ± 3.3 | 10.47 ± 0.2
293.15 K, x2 = 0.9058 | 1596.6 ± 3.3 | 6.546 ± 0.13
298.15 K, x2 = 0.1061 | 1521.7 ± 3.2 | 74.72 ± 2.1
298.15 K, x2 = 0.2004 | 1518.2 ± 3.2 | 57.5 ± 0.6
298.15 K, x2 = 0.3068 | 1518.3 ± 3.2 | 43.1 ± 0.72
298.15 K, x2 = 0.4026 | 1519.5 ± 3.2 | 32.2 ± 0.54
298.15 K, x2 = 0.5033 | 1524.6 ± 3.2 | 23.74 ± 0.41
298.15 K, x2 = 0.6046 | 1531.3 ± 3.2 | 17 ± 0.3
298.15 K, x2 = 0.7013 | 1542.5 ± 3.2 | 12 ± 0.22
298.15 K, x2 = 0.8073 | 1559.5 ± 3.2 | 7.526 ± 0.15
298.15 K, x2 = 0.9058 | 1580.2 ± 3.3 | 5.001 ± 0.11
303.15 K, x2 = 0.1061 | 1503.9 ± 3.2 | 53.07 ± 0.31
303.15 K, x2 = 0.2004 | 1499.8 ± 3.2 | 40.31 ± 0.67
303.15 K, x2 = 0.3068 | 1499.9 ± 3.2 | 28.9 ± 0.49
303.15 K, x2 = 0.4026 | 1501.1 ± 3.2 | 21.09 ± 0.37
303.15 K, x2 = 0.5033 | 1506.5 ± 3.2 | 15.04 ± 0.27
303.15 K, x2 = 0.6046 | 1513.8 ± 3.2 | 10.33 ± 0.19
303.15 K, x2 = 0.7013 | 1525.7 ± 3.2 | 7.023 ± 0.14
303.15 K, x2 = 0.8073 | 1543.8 ± 3.2 | 4.543 ± 0.1
303.15 K, x2 = 0.9058 | 1566.3 ± 3.2 | 3.526 ± 0.079
308.15 K, x2 = 0.1061 | 1488.7 ± 3.2 | 40.36 ± 0.68
308.15 K, x2 = 0.2004 | 1484.2 ± 3.2 | 30.96 ± 0.52
308.15 K, x2 = 0.3068 | 1483.6 ± 3.2 | 21.98 ± 0.38
308.15 K, x2 = 0.4026 | 1484.8 ± 3.2 | 15.66 ± 0.28
308.15 K, x2 = 0.5033 | 1490.1 ± 3.2 | 11.25 ± 0.21
308.15 K, x2 = 0.6046 | 1497.6 ± 3.2 | 7.455 ± 0.15
308.15 K, x2 = 0.7013 | 1509.9 ± 3.2 | 5.329 ± 0.11
308.15 K, x2 = 0.8073 | 1528.7 ± 3.2 | 3.578 ± 0.08
308.15 K, x2 = 0.9058 | 1552.5 ± 3.2 | 2.702 ± 0.061
313.15 K, x2 = 0.1061 | 1475.5 ± 3.2 | 31.06 ± 0.53
313.15 K, x2 = 0.2004 | 1470.2 ± 3.1 | 24.23 ± 0.42
313.15 K, x2 = 0.3068 | 1468.8 ± 3.1 | 17.48 ± 0.31
313.15 K, x2 = 0.4026 | 1469.6 ± 3.1 | 12.14 ± 0.22
313.15 K, x2 = 0.5033 | 1474.7 ± 3.1 | 8.414 ± 0.16
313.15 K, x2 = 0.6046 | 1482.1 ± 3.1 | 6.181 ± 0.13
313.15 K, x2 = 0.7013 | 1494.6 ± 3.1 | 4.545 ± 0.1
313.15 K, x2 = 0.8073 | 1513.9 ± 3.2 | 3.229 ± 0.072
313.15 K, x2 = 0.9058 | 1538.9 ± 3.2 | 2.626 ± 0.06
318.15 K, x2 = 0.1061 | 1463.3 ± 3.1 | 24.04 ± 0.41
318.15 K, x2 = 0.2004 | 1457 ± 3.1 | 18.62 ± 0.33
318.15 K, x2 = 0.3068 | 1454.8 ± 3.1 | 13.82 ± 0.25
318.15 K, x2 = 0.4026 | 1455.1 ± 3.1 | 9.999 ± 0.19
318.15 K, x2 = 0.5033 | 1459.9 ± 3.1 | 6.803 ± 0.14
318.15 K, x2 = 0.6046 | 1467.1 ± 3.1 | 4.697 ± 0.1
318.15 K, x2 = 0.7013 | 1479.7 ± 3.1 | 3.299 ± 0.074
318.15 K, x2 = 0.8073 | 1499.4 ± 3.1 | 2.478 ± 0.057
318.15 K, x2 = 0.9058 | 1525.5 ± 3.2 | 2.257 ± 0.052

OCCCCO [1,4-butanediol]
[1]
Details | speed of sound [m/s] | viscosity [mPa·s]
293.15 K | 1616.4 ± 3.4 | 97.26 ± 4.5
298.15 K | 1605.6 ± 3.4 | 72.75 ± 1.9
303.15 K | 1595.9 ± 3.3 | 56.89 ± 0.56
308.15 K | 1587.3 ± 3.3 | 44.88 ± 0.75
313.15 K | 1579.8 ± 3.3 | 35.81 ± 0.6
318.15 K | 1570.2 ± 3.3 | 29.05 ± 0.5

OCCCCO [1,4-butanediol] + NC=O
[2]
Details | speed of sound [m/s] | viscosity [mPa·s]
293.15 K, x2 = 0.1052 | 1606 ± 3.4 | 64.53 ± 1.2
293.15 K, x2 = 0.1988 | 1594.7 ± 3.3 | 44 ± 0.73
293.15 K, x2 = 0.3041 | 1585.7 ± 3.3 | 30.1 ± 0.51
293.15 K, x2 = 0.4002 | 1577.7 ± 3.3 | 21.2 ± 0.37
293.15 K, x2 = 0.5009 | 1572.5 ± 3.3 | 15.13 ± 0.27
293.15 K, x2 = 0.6022 | 1569.9 ± 3.3 | 11.33 ± 0.21
293.15 K, x2 = 0.6992 | 1574.7 ± 3.3 | 7.998 ± 0.16
293.15 K, x2 = 0.8051 | 1583.7 ± 3.3 | 5.512 ± 0.12
293.15 K, x2 = 0.905 | 1597.1 ± 3.3 | 4.026 ± 0.089
298.15 K, x2 = 0.1052 | 1592.6 ± 3.3 | 48.08 ± 0.8
298.15 K, x2 = 0.1988 | 1579.2 ± 3.3 | 31.14 ± 0.53
298.15 K, x2 = 0.3041 | 1568.5 ± 3.3 | 19.82 ± 0.35
298.15 K, x2 = 0.4002 | 1560.2 ± 3.3 | 12.5 ± 0.23
298.15 K, x2 = 0.5009 | 1553.9 ± 3.2 | 8.021 ± 0.16
298.15 K, x2 = 0.6022 | 1551.3 ± 3.2 | 6.233 ± 0.13
298.15 K, x2 = 0.6992 | 1556 ± 3.2 | 4.971 ± 0.11
298.15 K, x2 = 0.8051 | 1565.5 ± 3.2 | 3.96 ± 0.088
298.15 K, x2 = 0.905 | 1580.5 ± 3.3 | 3.372 ± 0.075
303.15 K, x2 = 0.1052 | 1580.1 ± 3.3 | 38.03 ± 0.64
303.15 K, x2 = 0.1988 | 1565.3 ± 3.3 | 24.03 ± 0.41
303.15 K, x2 = 0.3041 | 1553.4 ± 3.3 | 13.42 ± 0.24
303.15 K, x2 = 0.4002 | 1544.2 ± 3.2 | 7.715 ± 0.15
303.15 K, x2 = 0.5009 | 1537.7 ± 3.2 | 4.771 ± 0.11
303.15 K, x2 = 0.6022 | 1534.5 ± 3.2 | 3.722 ± 0.083
303.15 K, x2 = 0.6992 | 1539.5 ± 3.2 | 3.062 ± 0.069
303.15 K, x2 = 0.8051 | 1550 ± 3.2 | 2.658 ± 0.06
303.15 K, x2 = 0.905 | 1566.3 ± 3.2 | 2.754 ± 0.062
308.15 K, x2 = 0.1052 | 1568.8 ± 3.3 | 30.12 ± 0.51
308.15 K, x2 = 0.1988 | 1552 ± 3.3 | 18.56 ± 0.33
308.15 K, x2 = 0.3041 | 1539.2 ± 3.2 | 9.498 ± 0.18
308.15 K, x2 = 0.4002 | 1529.4 ± 3.2 | 4.663 ± 0.1
308.15 K, x2 = 0.5009 | 1522.1 ± 3.2 | 2.696 ± 0.062
308.15 K, x2 = 0.6022 | 1518.6 ± 3.2 | 2.188 ± 0.051
308.15 K, x2 = 0.6992 | 1524 ± 3.2 | 1.87 ± 0.044
308.15 K, x2 = 0.8051 | 1534.8 ± 3.2 | 1.924 ± 0.045
308.15 K, x2 = 0.905 | 1552.1 ± 3.2 | 2.366 ± 0.054
313.15 K, x2 = 0.1052 | 1558.4 ± 3.3 | 23.74 ± 0.41
313.15 K, x2 = 0.1988 | 1539.9 ± 3.2 | 13.81 ± 0.25
313.15 K, x2 = 0.3041 | 1525.4 ± 3.2 | 6.541 ± 0.14
313.15 K, x2 = 0.4002 | 1514.6 ± 3.2 | 2.871 ± 0.066
313.15 K, x2 = 0.5009 | 1506.5 ± 3.2 | 1.619 ± 0.038
313.15 K, x2 = 0.6022 | 1503 ± 3.2 | 1.272 ± 0.031
313.15 K, x2 = 0.6992 | 1508 ± 3.2 | 1.079 ± 0.027
313.15 K, x2 = 0.8051 | 1519.6 ± 3.2 | 1.525 ± 0.036
313.15 K, x2 = 0.905 | 1537.9 ± 3.2 | 1.998 ± 0.046
318.15 K, x2 = 0.1052 | 1546.2 ± 3.3 | 18.95 ± 0.33
318.15 K, x2 = 0.1988 | 1525.7 ± 3.2 | 10.75 ± 0.2
318.15 K, x2 = 0.3041 | 1510.2 ± 3.2 | 5.094 ± 0.11
318.15 K, x2 = 0.4002 | 1498.6 ± 3.2 | 2.024 ± 0.047
318.15 K, x2 = 0.5009 | 1490.6 ± 3.2 | 1.167 ± 0.029
318.15 K, x2 = 0.6022 | 1486.8 ± 3.1 | 1.003 ± 0.025
318.15 K, x2 = 0.6992 | 1491.7 ± 3.1 | 0.9823 ± 0.025
318.15 K, x2 = 0.8051 | 1503.8 ± 3.2 | 1.242 ± 0.03
318.15 K, x2 = 0.905 | 1524 ± 3.2 | 1.706 ± 0.04
